{"source": "ChEMBL document CHEMBL1151636", "about": "“Atractyloside, toxic compound from Wedelia glauca” (J Nat Prod, 1984)", "test_system": "Mus musculus", "test": "Toxicity in ip dosed mouse assessed as respiratory arrest", "assay_type": "organism-based", "settings": "in vivo"}
{"compound": "C=C1[C@@H]2CCC3[C@@](CC[C@@H]4[C@H](C(=O)O)C[C@@H](O[C@@H]5O[C@H](CO)[C@@H](OS(=O)(=O)[O-])[C@H](OS(=O)(=O)[O-])[C@H]5OC(=O)CC(C)C)C[C@@]34C)(C2)[C@@H]1O.[K+].[K+]", "note": "(stereo partly specified) [ATRACTYLOSIDE]", "values": [{"measurement": "Activity", "result": "Toxic"}]}
